The source of these data is PubChem BioAssay (NCI).

Test systems include UACC-62 melanoma; SNB-19 CNS; LOX IMVI melanoma; 786-0 renal; U251 CNS; HS 578T breast; HCC-2998 colon; NCI-H460 lung; SW-620 colon; SR leukemia.
Holding throughout (test): inhibition of tumour cell growth, NCI panel, 48 h

Molecules are shown by their SMILES.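 Grown in 96-well plates, cells were treated for 48 hours with each compound at five concentrations. Insufficient inhibition: endpoint recorded as highest concentration tested. GI50 marks 50% less growth. The concentration for full growth arrest is given as TGI.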 Some results are limits rather than exact numbers.

Consider `Cc1csc(-c2ccc3c(c2)COC3(CCCN(C)C)c2ccc(F)cc2)c1` (stereo not given), for which the GI50 is 1.78 µM with UACC-62 melanoma; 1.75 µM with SNB-19 CNS; 1.77 µM in the assay on LOX IMVI melanoma; 1.8 µM in the assay on 786-0 renal; 1.85 µM in the assay with U251 CNS; 1.93 µM with HS 578T breast. For the same molecule, the results for the GI50 with HCC-2998 colon, with NCI-H460 lung and in the assay on SW-620 colon were 1.79 µM, 1.9 µM and 1.8 µM, respectively. Further, the TGI in the assay on UACC-62 melanoma was found to be 3.36 µM; with SNB-19 CNS, 3.31 µM; with LOX IMVI melanoma, 3.24 µM; in the assay on 786-0 renal, 3.39 µM; with U251 CNS, 3.76 µM; with HS 578T breast, 4.44 µM. In addition, the TGI in the assay with HCC-2998 colon stood at 3.3 µM; with NCI-H460 lung, 3.5 µM; in the assay on SW-620 colon, 3.51 µM.

Take `COCO[C@@H]1CC2C=Nc3cc(OCc4ccccc4)c(OC)cc3C(=O)N2C1` (stereo not given in full): the GI50 was 0.463 µM in the assay with UACC-62 melanoma; 1.06 µM in the assay on SNB-19 CNS; 0.305 µM with LOX IMVI melanoma; 1.3 µM with 786-0 renal; 0.508 µM in the assay with U251 CNS; 0.572 µM in the assay on HS 578T breast. For the same molecule, the GI50 in the assay with HCC-2998 colon was 0.519 µM; in the assay on NCI-H460 lung it was 0.36 µM; with SW-620 colon, 0.482 µM. Moreover, the TGI in the assay on UACC-62 melanoma is 1.03 µM; in the assay on SNB-19 CNS, 44.6 µM; in the assay with LOX IMVI melanoma, 10.4 µM; in the assay with 786-0 renal, 30.9 µM; in the assay on U251 CNS, 14.1 µM; with HS 578T breast, 4.97 µM. Besides, the TGI with HCC-2998 colon amounted to 2.63 µM; with NCI-H460 lung, 14.3 µM; in the assay on SW-620 colon, 8.61 µM.

Turning to `CS(=O)(=O)N(CC(=O)O)Cc1ccccc1`, the TGI with UACC-62 melanoma, in the assay on SNB-19 CNS, in the assay on LOX IMVI melanoma, in the assay on 786-0 renal, in the assay with SR leukemia and with U251 CNS was more than 100 µM in each case. Further, the TGI in the assay on HS 578T breast, with NCI-H460 lung and in the assay with SW-620 colon was more than 100 µM in each case.

For the molecule `COc1cc([N+](=O)[O-])c(OC)cc1-c1nc2n(c1/C(N)=N/C(=N)N)CCS2`, the GI50 in the assay with UACC-62 melanoma is 75.5 µM; in the assay on SNB-19 CNS, 10.2 µM; with LOX IMVI melanoma, 89.1 µM; in the assay on 786-0 renal, 25.1 µM; in the assay with U251 CNS, 9.12 µM; with HS 578T breast it was 32.5 µM. Further, the GI50 in the assay with HCC-2998 colon was more than 100 µM; with NCI-H460 lung, 70.1 µM; in the assay on SW-620 colon it was more than 100 µM. In addition, the TGI with UACC-62 melanoma, with SNB-19 CNS, in the assay with LOX IMVI melanoma, in the assay on 786-0 renal, with U251 CNS and with HS 578T breast was more than 100 µM in each case. The TGI in the assay on HCC-2998 colon, in the assay on NCI-H460 lung and in the assay on SW-620 colon was more than 100 µM throughout.

`NCC(=O)NC(CO)C(=O)O` (stereo not given): the TGI in the assay with UACC-62 melanoma, with SNB-19 CNS, with LOX IMVI melanoma, with 786-0 renal, in the assay on U251 CNS and with HS 578T breast was more than 100 µM each time. In addition, the TGI with HCC-2998 colon, with NCI-H460 lung and with SW-620 colon was more than 100 µM throughout.

As to `COc1ccc2c([nH]c3cc(O)c(C)cc32)c1CC=C(C)C`, the GI50 is 9.11 µM in the assay on UACC-62 melanoma; 4.36 µM in the assay with LOX IMVI melanoma; 4.4 µM in the assay with 786-0 renal; 7.19 µM with SR leukemia; 5.89 µM with U251 CNS; 5.49 µM in the assay with HCC-2998 colon. The GI50 is 5.56 µM in the assay on NCI-H460 lung and 6.75 µM in the assay on SW-620 colon. Also, the TGI in the assay with UACC-62 melanoma is more than 25 µM; in the assay on SNB-19 CNS, more than 25 µM; with LOX IMVI melanoma it was 7.8 µM; in the assay on 786-0 renal, 8.61 µM; in the assay with SR leukemia it was more than 25 µM; with U251 CNS it was 13.7 µM. For the same molecule, the figures for the TGI in the assay with HCC-2998 colon, in the assay with NCI-H460 lung and with SW-620 colon were 14.5 µM, 14.1 µM and 20.7 µM, respectively.

With `N=C(N)c1ccc(-c2ccc(-c3ccc(Cl)c(Cl)c3)o2)nc1`, the GI50 was 1.84 µM in the assay with SNB-19 CNS, 1.99 µM in the assay on 786-0 renal, 0.559 µM with SR leukemia and 1.89 µM with HS 578T breast. The TGI in the assay with SNB-19 CNS was 3.7 µM; with 786-0 renal, 3.83 µM; with SR leukemia, more than 100 µM; in the assay with HS 578T breast, 4.36 µM.

For the molecule `CNc1ccc(C(=O)CC(O)CCC(C)C2OC(=O)CC(O)CC(=O)CC(O)CC(O)CC(O)CC(O)CC3(O)CC(O)C(C(=O)NCCc4ccccn4)C(CC(OC4OC(C)C(O)C(N)C4O)/C=C/C=C/C=C/C=C\C=C/C=C/C=C/C2C)O3)cc1` (stereo not given), the GI50 in the assay with UACC-62 melanoma is 1.54 µM; in the assay on SNB-19 CNS, 14.8 µM; in the assay on LOX IMVI melanoma, 2.11 µM; with 786-0 renal it was 0.118 µM; with U251 CNS, 2.11 µM; in the assay on HS 578T breast it was 0.489 µM. The GI50 was 1.59 µM with HCC-2998 colon, 0.238 µM with NCI-H460 lung and more than 41.5 µM in the assay on SW-620 colon. Also, the TGI was more than 34.2 µM with UACC-62 melanoma; more than 50 µM in the assay with SNB-19 CNS; more than 50 µM in the assay with LOX IMVI melanoma; 0.361 µM with 786-0 renal; more than 40.3 µM in the assay on U251 CNS; 2.61 µM in the assay with HS 578T breast. For the same molecule, the TGI is 4.88 µM with HCC-2998 colon, more than 17.8 µM in the assay on NCI-H460 lung and more than 50 µM with SW-620 colon.

As for `N#C/C(=C\c1ccc([N+](=O)[O-])s1)c1nc2cc(Br)ccc2s1`, the GI50 in the assay with SNB-19 CNS was 0.369 µM; with LOX IMVI melanoma, 0.171 µM; in the assay with 786-0 renal it was 2.68 µM; in the assay on SR leukemia, 0.0856 µM; in the assay with U251 CNS, 0.298 µM; in the assay on HS 578T breast, 0.804 µM. Besides, the GI50 was 0.286 µM with NCI-H460 lung and 0.244 µM with SW-620 colon. Further, the TGI with SNB-19 CNS is more than 100 µM; in the assay with LOX IMVI melanoma it was 0.395 µM; in the assay on 786-0 renal, more than 100 µM; in the assay with SR leukemia it was 1.77 µM; in the assay on U251 CNS it was 0.986 µM; in the assay with HS 578T breast, 9.28 µM. Further, the figures for the TGI in the assay on NCI-H460 lung and with SW-620 colon were 0.845 µM and 1.06 µM, respectively.

As for `CC(C)N(C(=O)C12C3C4C5C3C1(C#N)C5C42)C(C)C` (stereo not given), the TGI with UACC-62 melanoma, in the assay with SNB-19 CNS, in the assay with LOX IMVI melanoma, in the assay with 786-0 renal, in the assay on SR leukemia and in the assay with U251 CNS was more than 100 µM throughout. The TGI in the assay with HCC-2998 colon, in the assay with NCI-H460 lung and in the assay with SW-620 colon was more than 100 µM in each case.
